# Measured values published in patent US8383581B2, “Short-chain peptides as parathyroid hormone (PTH) receptor agonist” (Cadila Healthcare Limited, priority 2009, dated 2013).
# Where a SMILES comes first, the peptide text is derived from it. [ ]: non-standard residue; d: D form. ξ: configuration not given here. ξBip(2'-Et-4'-OMe) = CCc1cc(OC)ccc1-c1ccc(CC(N)C(=O)O)cc1; Arg(NO2) = N=C(NCCC[C@H](N)C(=O)O)N[N+](=O)[O-]; ξαMePhe(2,6-F2) = CC(N)(Cc1c(F)cccc1F)C(=O)O; ξαMe(hhPhe) = CC(N)(CCCc1ccccc1)C(=O)O; hArg = N=C(N)NCCCC[C@H](N)C(=O)O; hCit = NC(=O)NCCCC[C@H](N)C(=O)O; Cit = NC(=O)NCCC[C@H](N)C(=O)O; ξhhPhe = NC(CCCc1ccccc1)C(=O)O; ξαMeF = CC(N)(Cc1ccccc1)C(=O)O; NMeV = CN[C@H](C(=O)O)C(C)C; ξαMeNle = CCCCC(C)(N)C(=O)O; Nle = CCCC[C@H](N)C(=O)O; Orn = NCCC[C@H](N)C(=O)O; Ac5c = NC1(C(=O)O)CCCC1; Ac3c = NC1(C(=O)O)CC1; Aib = CC(C)(N)C(=O)O
# Tested on: ovariectomised (OVX) rats
# Experiment: In vivo anti-osteoporosis activity testing in OVX rat model (serum calcium, phosphate, bone parameters)
# Design: species or system Female Wistar Rats
# Conditions: po
# From the text: c) In Vivo Anti-Osteoporosis Activity Testing in OVX Rat Model: The ovariectomised (OVX) rats were used to study anti-osteoporosis activity of test compounds (short-chain peptides) in vivo. The OVX rats develop osteopenia due to ovarian hormone deficiency. Osteopenia can be detected as early as 14 days post OVX, increase for the next 100 days and then stabilised (Wronski T. J., et al., Calcif. Tissue Int., 43(3), 1988, 179-183). Detailed Study Protocol to Evaluate the Effects of Anabolic Therapy on Bone Markers and Histomorphometry in OVX Animals: 10 to 11 weeks old Female Wistar Rats (150-200 g) were used. The animals were kept in individually ventilated cages in a room with controlled temperature (23°±3° C.), lighting (12:12 h light-dark cycle) and relative humidity (55±10%). Animals had free access to standard rat chow and water. Protocol for use of animals for conducting this study has been reviewed and approved by Institutional Animal Ethics Committee (IAEC). The animals were marked with picric acid for identification and acclimatized to experimental room conditions for 2 days prior to initiation of the study. For the induction of osteoporosis, rats were bilaterally ovariectomised under anesthesia. For Ovariectomy, Incision was made on dorsa-lateral side near lumbar region of animal. After that, ovary was excised and the veins were tied with ligature before removing ovary to prevent blood loss. Then incision was sutured back with ligature. After Bilateral ovariectomy, animals were allowed to rest for 4 weeks. They were then divided into different groups (n=9) based on their body weight. The groups consisted of a no treatment control, PTH as standard and one or two groups of test compounds (short-chain peptides). The treatment was given for the duration of 6 weeks. At the last day of treatment animals were kept overnight in metabolic cages under fasting for the collection of Urine. Next day, blood was collected after 24 hours of last dosing and animals were sacrificed. Changes in biochemical parameters and bone turnover parameters (Increase in serum Calcium and decrease in Phosphate levels, Acid Phosphatase and TRAP) were evaluated in the urine and serum. After sacrificing, intact femur and tibial bones are removed and cleaned from adherent tissues, muscles and tendons; weighed and collected in formal saline (10% formaldehyde solution). Lumbar vertebra (L5) was excised, carefully cleaned and collected in formal saline. Femur, tibia and Lumbar vertebra-5 (L5) were later processed for histomorphometric evaluation (Zhang L., et al., Tohoku J Exp Med., 1998, 186(2), 131-41; Tanizawa T., et al., Toxicol Lett., 1998, 102, 399-403).
smiles,measurement,setting,value
"CCCC[C@H](NC(=O)C(C)(Cc1c(F)cccc1F)NC(=O)[C@H](CCC(N)=O)NC(=O)[C@@H](NC(=O)[C@H](CCC(=O)O)NC(=O)C(C)(C)NC(=O)[C@@H](NC(=O)C(C)(C)N)C(C)C)[C@@H](C)CC)C(=O)N[C@@H](Cc1c[nH]cn1)C(=O)N[C@@H](CCC(N)=O)C(=O)N[C@@H](CCCCNC(=N)N)C(=O)N[C@@H](C)C(=O)NC(C)(C)C(=O)NC(Cc1ccc(-c2ccc(OC)cc2CC)cc1)C(=O)NC(CCCc1ccccc1)C(N)=O (some centres unmarked) [Seq. ID. 814] (H-[Aib]V[Aib]EIQ[ξαMePhe(2,6-F2)][Nle]HQ[hArg]A[Aib][ξBip(2'-Et-4'-OMe)][ξhhPhe]-NH2)",% decrease in serum PO4 Levels (mg/dl) vs control,0.02 mg/kg,95%
same,% increase in serum Ca^2+ Levels (mg/dl) vs control,0.02 mg/kg,99%
"CCCC[C@H](NC(=O)[C@H](CC(C)C)NC(=O)[C@H](CCC(N)=O)NC(=O)[C@@H](NC(=O)[C@H](CCC(=O)O)NC(=O)C(C)(C)NC(=O)[C@@H](NC(=O)C1(N)CCCC1)C(C)C)[C@@H](C)CC)C(=O)N[C@@H](Cc1c[nH]cn1)C(=O)N[C@@H](CCC(N)=O)C(=O)NC(C)(Cc1c(F)cccc1F)C(=O)N[C@@H](C)C(=O)NC(C)(Cc1c(F)cccc1F)C(=O)NC(Cc1ccc(-c2ccc(OC)cc2CC)cc1)C(=O)NC(CCCc1ccccc1)C(N)=O (some centres unmarked) [Seq. ID. 801] (H-[Ac5c]V[Aib]EIQL[Nle]HQ[ξαMePhe(2,6-F2)]A[ξαMePhe(2,6-F2)][ξBip(2'-Et-4'-OMe)][ξhhPhe]-NH2)",% decrease in serum PO4 Levels (mg/dl) vs control,3 mg/kg,65%
same,% increase in serum Ca^2+ Levels (mg/dl) vs control,3 mg/kg,59%
CCCC[C@H](NC(=O)[C@H](CC(C)C)NC(=O)[C@H](CCC(N)=O)NC(=O)[C@@H](NC(=O)[C@H](CCC(=O)O)NC(=O)C(C)(C)NC(=O)[C@@H](NC(=O)C1(N)CCCC1)C(C)C)[C@@H](C)CC)C(=O)N[C@@H](Cc1c[nH]cn1)C(=O)N[C@@H](CCC(N)=O)C(=O)N[C@@H](CCCCNC(N)=O)C(=O)N[C@@H](C)C(=O)N[C@@H](CCCNC(=N)N)C(=O)NC(Cc1ccc(-c2ccc(OC)cc2CC)cc1)C(=O)NC(CCCc1ccccc1)C(N)=O (some centres unmarked) [Seq. ID. 779] (H-[Ac5c]V[Aib]EIQL[Nle]HQ[hCit]AR[ξBip(2'-Et-4'-OMe)][ξhhPhe]-NH2),% decrease in serum PO4 Levels (mg/dl) vs control,1 mg/kg,56%
same,% increase in serum Ca^2+ Levels (mg/dl) vs control,1 mg/kg,67%
"CCCC[C@H](NC(=O)C(C)(Cc1c(F)cccc1F)NC(=O)[C@H](CCC(N)=O)NC(=O)[C@@H](NC(=O)[C@H](CCC(=O)O)NC(=O)C(C)(C)NC(=O)[C@@H](NC(=O)C(C)(C)N)C(C)C)[C@@H](C)CC)C(=O)N[C@@H](Cc1c[nH]cn1)C(=O)N[C@@H](CCC(N)=O)C(=O)N[C@@H](CCCN)C(=O)N[C@@H](C)C(=O)N[C@@H](CCCNC(N)=O)C(=O)NC(C)(Cc1c(F)cccc1F)C(N)=O (some centres unmarked) [Seq. ID. 293] (H-[Aib]V[Aib]EIQ[ξαMePhe(2,6-F2)][Nle]HQ[Orn]A[Cit][ξαMePhe(2,6-F2)]-NH2)",% decrease in serum PO4 Levels (mg/dl) vs control,5 mg/kg,75%
same,% increase in serum Ca^2+ Levels (mg/dl) vs control,5 mg/kg,67%
"CCCC[C@H](NC(=O)C(C)(Cc1c(F)cccc1F)NC(=O)[C@H](CCC(N)=O)NC(=O)[C@@H](NC(=O)[C@H](CCC(=O)O)NC(=O)C(C)(C)NC(=O)[C@@H](NC(=O)C1(N)CCCC1)C(C)C)[C@@H](C)CC)C(=O)N[C@@H](Cc1c[nH]cn1)C(=O)N[C@@H](CCC(N)=O)C(=O)NC(C)(C)C(=O)N[C@@H](C)C(=O)N[C@@H](CCCNC(=N)N[N+](=O)[O-])C(=O)NC(C)(Cc1c(F)cccc1F)C(N)=O (some centres unmarked) [Seq. ID. 599] (H-[Ac5c]V[Aib]EIQ[ξαMePhe(2,6-F2)][Nle]HQ[Aib]A[Arg(NO2)][ξαMePhe(2,6-F2)]-NH2)",% decrease in serum PO4 Levels (mg/dl) vs control,0.03 mg/kg,90%
same,% increase in serum Ca^2+ Levels (mg/dl) vs control,0.03 mg/kg,110%
"CCCC[C@H](NC(=O)C(C)(Cc1c(F)cccc1F)NC(=O)[C@H](CCC(N)=O)NC(=O)[C@@H](NC(=O)[C@H](CCC(=O)O)NC(=O)C(C)(C)NC(=O)[C@@H](NC(=O)C1(N)CCCC1)C(C)C)[C@@H](C)CC)C(=O)N[C@@H](Cc1c[nH]cn1)C(=O)N[C@@H](CCC(N)=O)C(=O)N[C@@H](CCCNC(N)=O)C(=O)N[C@@H](C)C(=O)NC(C)(C)C(=O)NC(Cc1ccc(-c2ccc(OC)cc2CC)cc1)C(=O)NC(CCCc1ccccc1)C(N)=O (some centres unmarked) [Seq. ID. 847] (H-[Ac5c]V[Aib]EIQ[ξαMePhe(2,6-F2)][Nle]HQ[Cit]A[Aib][ξBip(2'-Et-4'-OMe)][ξhhPhe]-NH2)",% decrease in serum PO4 Levels (mg/dl) vs control,0.5 mg/kg,79%
same,% increase in serum Ca^2+ Levels (mg/dl) vs control,0.5 mg/kg,77%
CCCCC(C)(NC(=O)[C@H](CC(C)C)NC(=O)[C@H](CCC(N)=O)NC(=O)[C@@H](NC(=O)[C@H](CCC(=O)O)NC(=O)C(C)(C)NC(=O)[C@@H](NC(=O)C1(NC(=O)[C@@H](NC)C(C)C)CCCC1)C(C)C)[C@@H](C)CC)C(=O)N[C@@H](Cc1c[nH]cn1)C(=O)N[C@@H](CCC(N)=O)C(=O)N[C@@H](CCCCNC(=N)N)C(=O)N[C@@H](C)C(=O)N[C@@H](CCCCNC(=N)N)C(=O)NC(Cc1ccc(-c2ccc(OC)cc2CC)cc1)C(=O)NC(C)(CCCc1ccccc1)C(N)=O (some centres unmarked) [Seq. ID. 929] (H-[NMeV][Ac5c]V[Aib]EIQL[ξαMeNle]HQ[hArg]A[hArg][ξBip(2'-Et-4'-OMe)][ξαMe(hhPhe)]-NH2),% decrease in serum PO4 Levels (mg/dl) vs control,2 mg/kg,90%
same,% increase in serum Ca^2+ Levels (mg/dl) vs control,2 mg/kg,121%
"CCCC[C@H](NC(=O)C(C)(Cc1c(F)cccc1F)NC(=O)[C@H](CCC(N)=O)NC(=O)[C@@H](NC(=O)[C@H](CCC(=O)O)NC(=O)C(C)(C)NC(=O)[C@@H](NC(=O)C(C)(C)N)C(C)C)[C@@H](C)CC)C(=O)N[C@@H](Cc1c[nH]cn1)C(=O)N[C@@H](CCC(N)=O)C(=O)N[C@@H](CCCCNC(N)=O)C(=O)N[C@@H](C)C(=O)N[C@@H](CCCNC(=N)N[N+](=O)[O-])C(=O)NC(C)(Cc1c(F)cccc1F)C(N)=O (some centres unmarked) [Seq. ID. 469] (H-[Aib]V[Aib]EIQ[ξαMePhe(2,6-F2)][Nle]HQ[hCit]A[Arg(NO2)][ξαMePhe(2,6-F2)]-NH2)",% decrease in serum PO4 Levels (mg/dl) vs control,0.01 mg/kg,65%
same,% increase in serum Ca^2+ Levels (mg/dl) vs control,0.01 mg/kg,43%
"CCCC[C@H](NC(=O)C(C)(Cc1c(F)cccc1F)NC(=O)[C@H](CCC(N)=O)NC(=O)[C@@H](NC(=O)[C@H](CCC(=O)O)NC(=O)C(C)(C)NC(=O)[C@@H](NC(=O)C1(N)CC1)C(C)C)[C@@H](C)CC)C(=O)N[C@@H](Cc1c[nH]cn1)C(=O)N[C@@H](CCC(N)=O)C(=O)N[C@@H](CCCCNC(=N)N)C(=O)N[C@@H](C)C(=O)N[C@@H](CCCCN)C(=O)NC(C)(Cc1ccccc1)C(N)=O (some centres unmarked) [Seq. ID. 39] (H-[Ac3c]V[Aib]EIQ[ξαMePhe(2,6-F2)][Nle]HQ[hArg]AK[ξαMeF]-NH2)",% decrease in serum PO4 Levels (mg/dl) vs control,0.03 mg/kg,66%
same,% increase in serum Ca^2+ Levels (mg/dl) vs control,0.03 mg/kg,88%
"CCCC[C@H](NC(=O)C(C)(Cc1c(F)cccc1F)NC(=O)[C@H](CCC(N)=O)NC(=O)[C@@H](NC(=O)[C@H](CCC(=O)O)NC(=O)C1(NC(=O)[C@@H](NC(=O)C2(N)CCCC2)C(C)C)CCCC1)[C@@H](C)CC)C(=O)N[C@@H](Cc1c[nH]cn1)C(=O)N[C@@H](CCC(N)=O)C(=O)N[C@@H](CCCCNC(=N)N)C(=O)NC(C)(C)C(=O)N[C@@H](CCCCN)C(=O)NC(C)(Cc1c(F)cccc1F)C(N)=O (some centres unmarked) [Seq. ID. 117] (H-[Ac5c]V[Ac5c]EIQ[ξαMePhe(2,6-F2)][Nle]HQ[hArg][Aib]K[ξαMePhe(2,6-F2)]-NH2)",% decrease in serum PO4 Levels (mg/dl) vs control,3 mg/kg,99%
same,% increase in serum Ca^2+ Levels (mg/dl) vs control,3 mg/kg,110%
